Laboratory results published in patent US11377442B2, “Small molecule agonists and antagonists of NR2F6 activity” (ZANDER THERAPEUTICS, INC., priority 2016, dated 2022).
One block for each molecule: values may come before it.

Molecular target: T1, NR2F6 (Homo sapiens, UniProt P10588)
T1 construct: expressed in transfected cells; also transient transfection
T1 sequence (P10588 1-404): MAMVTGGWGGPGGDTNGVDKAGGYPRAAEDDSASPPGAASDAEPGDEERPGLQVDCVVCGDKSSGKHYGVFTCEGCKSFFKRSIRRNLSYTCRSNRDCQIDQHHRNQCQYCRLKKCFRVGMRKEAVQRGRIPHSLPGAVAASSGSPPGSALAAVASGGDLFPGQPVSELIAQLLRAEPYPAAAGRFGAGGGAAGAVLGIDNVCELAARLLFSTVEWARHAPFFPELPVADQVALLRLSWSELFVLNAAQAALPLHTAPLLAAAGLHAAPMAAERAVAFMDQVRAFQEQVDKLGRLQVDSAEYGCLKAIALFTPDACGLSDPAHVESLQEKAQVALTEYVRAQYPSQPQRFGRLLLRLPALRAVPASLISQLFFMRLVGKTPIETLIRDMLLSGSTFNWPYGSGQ
Assay: NR2F6 agonist screening, Firefly signal cmpd/DMSO
Assay type: cell-based
Design: Firefly NR2F6 full length, cmpd/DMSO (mean) / Firefly F4, cmpd/DMSO (mean): unit of the concentration uncertain
Conditions: for Firefly/Renilla (NR2F6 stable, clone F4): ratio Firefly/Renilla; for Firefly, NR2F6 stable (clone F4)/pGL4: ratio of Firefly in NR2F6 stable clone F4 to pGL4

[1] = C11 analogs follow set (Tables 2-10), repeat 1
[2] = C11 analogs follow set (Tables 2-10), repeat 2
[3] = Concentration 2 (unit uncertain)
[4] = Concentration 10 (unit uncertain)
[5] = Concentration 40 (unit uncertain)

Firefly, cmpd/DMSO repeat 1 (Table 9, repeat 1): 1.5
Firefly, cmpd/DMSO repeat 2 (Table 9, repeat 2): 1.5
Compound: COc1cccc2cc(S(=O)(=O)c3cccc(Cl)c3)c(=O)oc12 [Compound C255]

Firefly, cmpd/DMSO repeat 1 [1]: 9.4
Firefly, cmpd/DMSO repeat 2 [2]: 8.7
Firefly/Renilla (NR2F6 stable, clone F4) (Table 13): 1.2
Firefly, NR2F6 stable (clone F4)/pGL4 (Table 13): 5.0
Firefly, cmpd/DMSO repeat 1 (Table 13, repeat 1): 9.4
Firefly, cmpd/DMSO repeat 2 (Table 13, repeat 2): 8.7
Compound: Cc1ccc(S(=O)(=O)c2cc3cc(Cl)ccc3oc2=O)cc1Cl [Compound C188]

Firefly, cmpd/DMSO repeat 1 [1]: 3.6
Firefly, cmpd/DMSO repeat 2 [2]: 5.5
Compound: O=c1oc2ccc(Cl)cc2cc1S(=O)(=O)c1ccc(Cl)c(Cl)c1 [Compound C151]

Firefly, cmpd/DMSO repeat 1 (Table 11, repeat 1): 1.0
Firefly, cmpd/DMSO repeat 2 (Table 11, repeat 2): 1.0
Compound: Cc1ccc(S(=O)(=O)c2cc3cc(Br)cc(Br)c3oc2=O)cc1C [Compound C285]

Firefly, cmpd/DMSO repeat 1 [1]: 0.6
Firefly, cmpd/DMSO repeat 2 [2]: 0.6
Compound: COc1ccc2cc(S(=O)(=O)c3ccccc3F)c(=O)oc2c1 [Compound C280]

Firefly F4, cmpd/DMSO (mean) [3]: 0.7
Firefly NR2F6 full length, cmpd/DMSO (mean) [3]: 1.0
Firefly F4, cmpd/DMSO (mean) [4]: 0.9
Firefly NR2F6 full length, cmpd/DMSO (mean) [4]: 1.3
Firefly F4, cmpd/DMSO (mean) [5]: 0.7
Firefly NR2F6 full length, cmpd/DMSO (mean) [5]: 1.4
Compound: Cc1cccn2cc(CNS(=O)(=O)c3ccccc3F)nc12 [Compound E52]

Firefly, cmpd/DMSO (mean) (mean of repeats): 12.8
Firefly, cmpd repeat 1 (raw signal, repeat 1): 784
Firefly, cmpd repeat 2 (raw signal, repeat 2): 644
Firefly, cmpd/DMSO repeat 1 (repeat 1): 14.1
Firefly, cmpd/DMSO repeat 2 (repeat 2): 11.7
Compound: CCOC(=O)c1cnc2c(C)cc(C)cc2c1NCCCN(C)C [Compound D28]

Firefly, cmpd/DMSO repeat 1 [1]: 1.8
Firefly, cmpd/DMSO repeat 2 [2]: 1.4
Compound: Cc1cc(S(=O)(=O)c2cc3cc(F)ccc3oc2=O)ccc1F [Compound C217]

Firefly F4, cmpd/DMSO (mean) [3]: 0.9
Firefly NR2F6 full length, cmpd/DMSO (mean) [3]: 1.1
Firefly F4, cmpd/DMSO (mean) [4]: 0.7
Firefly NR2F6 full length, cmpd/DMSO (mean) [4]: 1.0
Firefly F4, cmpd/DMSO (mean) [5]: 0.4
Firefly NR2F6 full length, cmpd/DMSO (mean) [5]: 0.9
Compound: Cc1ccc(S(=O)(=O)NCc2cn3cccc(C)c3n2)cc1C [Compound E41]

Firefly, cmpd/DMSO repeat 1 [1]: 5.0
Firefly, cmpd/DMSO repeat 2 [2]: 5.8
Compound: O=c1oc2ccc(Cl)cc2cc1S(=O)(=O)c1ccc(Br)cc1 [Compound C204]

Firefly, cmpd/DMSO repeat 1 (Table 11, repeat 1): 6.0
Firefly, cmpd/DMSO repeat 2 (Table 11, repeat 2): 7.8
Compound: COc1ccc(S(=O)(=O)c2cc3cc(Br)cc(OC)c3oc2=O)cc1 [Compound C296]

Firefly, cmpd/DMSO repeat 1 [1]: 29.8
Firefly, cmpd/DMSO repeat 2 [2]: 35.9
Firefly/Renilla (NR2F6 stable, clone F4) (Table 13): 1.1
Firefly, NR2F6 stable (clone F4)/pGL4 (Table 13): 8.7
Firefly, cmpd/DMSO repeat 1 (Table 13, repeat 1): 29.8
Firefly, cmpd/DMSO repeat 2 (Table 13, repeat 2): 35.9
Compound: O=C(NCCc1ccccc1)c1ccc2oc(=O)c(S(=O)(=O)c3ccccc3)cc2c1 [Compound C111]

Firefly, cmpd/DMSO repeat 1 [1]: 1.3
Firefly, cmpd/DMSO repeat 2 [2]: 1.0
Compound: CC(C)(C)c1ccc(S(=O)(=O)c2cc3cc(F)ccc3oc2=O)cc1 [Compound C216]

Firefly, cmpd/DMSO repeat 1 (Table 9, repeat 1): 1.2
Firefly, cmpd/DMSO repeat 2 (Table 9, repeat 2): 1.8
Compound: COc1cccc2cc(S(=O)(=O)c3ccc(F)c(Cl)c3)c(=O)oc12 [Compound C250]

Firefly, cmpd/DMSO repeat 1 [1]: 11.7
Firefly, cmpd/DMSO repeat 2 [2]: 10.1
Firefly/Renilla (NR2F6 stable, clone F4) (Table 12): 2.0
Firefly, NR2F6 stable (clone F4)/pGL4 (Table 12): 4.1
Firefly, cmpd/DMSO repeat 1 (Table 12, repeat 1): 11.7
Firefly, cmpd/DMSO repeat 2 (Table 12, repeat 2): 10.1
Compound: Cc1ccc(S(=O)(=O)c2cc3cc(C(=O)NCCc4ccccc4)ccc3oc2=O)cc1 [Compound C112]

Firefly, cmpd/DMSO repeat 1 [1]: 5.8
Firefly, cmpd/DMSO repeat 2 [2]: 14.3
Compound: Cc1cc(C)cc(NC(=O)c2ccc3oc(=O)c(S(=O)(=O)c4ccccc4)cc3c2)c1 [Compound C174]

Firefly, cmpd/DMSO repeat 1 [1]: 8.6
Firefly, cmpd/DMSO repeat 2 [2]: 9.0
Compound: Cc1ccc(CNC(=O)c2ccc3oc(=O)c(S(=O)(=O)c4ccc(Cl)cc4)cc3c2)cc1 [Compound C116]

Firefly, cmpd/DMSO repeat 1 [1]: 5.7
Firefly, cmpd/DMSO repeat 2 [2]: 4.8
Firefly/Renilla (NR2F6 stable, clone F4) (Table 13): 2.6
Firefly, NR2F6 stable (clone F4)/pGL4 (Table 13): 3.1
Firefly, cmpd/DMSO repeat 1 (Table 13, repeat 1): 5.7
Firefly, cmpd/DMSO repeat 2 (Table 13, repeat 2): 4.8
Compound: O=c1oc2ccccc2cc1S(=O)(=O)c1ccc(Cl)cc1 [Compound C105]
